Experimental findings from US20190077724A1, “COMPOSITIONS AND METHODS FOR CROP NUTRITION” (AdvanSix Resins & Chemicals LLC, priority 2017, published 2019) are described below.

The data set in a line: NBPT comparative solubility in solvents. It is filed as physicochemical. The settings on record: room temperature; for maximum weight percentage of NBPT dissolved in the solvent: vials with 20, 30, 40 and 50 wt. % NBPT. The method, then: The solubility of the N-(n-butyl) thiophosphoric triamide (NBPT) was determined for thirteen solvents. Three of the solvents were caprolactam-derived solvents in accordance with compositions of this disclosure. The remaining ten were comparative solvents. The NBPT was 98% (HPLC) obtained from AK Scientific, Inc., Union City, California. The N-methyl-2-pyrrolidone was at least 99% pure and obtained from Sigma Aldrich of St. Louis, Missouri. The N-butyl-2-pyrrolidone was at least 98% pure and obtained from TCI America of Portland, Oregon. The methyl-5-(dimethylamino)-2-methyl-5-oxopentanoate/propylene glycol was 70-90% pure and obtained from Solvay S. A. of Princeton, N.J.
The solubility of NBPT was evaluated for each solvent by preparing four, 2 ml vials containing 20 wt. %, 30 wt. %, 40 wt. % and 50 wt. % of NBPT. To prepare the 20 wt. % vial, 0.040 g of NBPT was added to 0.160 ml of solvent. To prepare the 30 wt. % vial, 0.060 g of NBPT was added to 0.140 ml of solvent. To prepare the 40 wt. % vial, […] of NBPT was added to 0.120 ml of solvent. To prepare the 50 wt. % vial, 0.100 g of NBPT was added to 0.100 ml of solvent. The vials were capped and swirled at room temperature until no change in solubility was observed.
Solvents 1-3 are in accordance with compositions of the present disclosure. Solvents 4-13 are comparative solvents.

`O=C1CCCCC1` [cyclohexanone]: the “maximum weight percentage of NBPT dissolved in the solvent” value (shortened to “maximum weight percentage”) is 40%.

For the compound `COC(=O)CCCCC(=O)N(C)C` [N,N-dimethyladipamide methyl ester], the “maximum weight percentage” value is 40%.

For the compound `CC(=O)OC1CCCCC1` [cyclohexyl acetate], the “maximum weight percentage” value was under 20%.

With `COC1CCCCC1` [cyclohexyl methyl ether], the “maximum weight percentage” value was under 20%.

For the compound `N#CCCN1CCCCCC1=O` [N-(2-cyanoethyl)caprolactam], the “maximum weight percentage” value was under 20%.

For `CCCCCCCCCC(=O)N(C)C` [N,N-dimethyldecanamide], the “maximum weight percentage” value was 20%.

In the case of `CN1CCCC1=O` [N-methyl-2-pyrrolidone], the “maximum weight percentage” value stood at 50%.

Regarding `CN1CCCCCC1=O` [N-methylcaprolactam], the “NBPT dissolving performance compared with NMP” value was “performed as well as NMP” and the “maximum weight percentage” value was 50%.

For the compound `CCCCN1CCCC1=O` [N-butyl-2-pyrrolidone], the “maximum weight percentage” value is on record as 50%.

In the case of `CCN1CCCCCC1=O` [N-ethylcaprolactam], the “NBPT dissolving performance compared with NMP” value is listed as “performed as well as NMP” and the “maximum weight percentage” value amounted to 50%.

`CCCCN1CCCCCC1=O` [N-butylcaprolactam]: the “NBPT dissolving performance compared with NMP” value is listed as “performed nearly as well as NMP” and the “maximum weight percentage” value is given as 40%.

With `CCCC(=O)OC1CCCCC1` [cyclohexyl butyrate], the “maximum weight percentage” value was under 20%.

`COC(=O)C(C)CCC(=O)N(C)C` (stereo not shown) [methyl-5-(dimethylamino)-2-methyl-5-oxopentanoate]: the “maximum weight percentage” value stood at 30%.
